According to patent US20260240832A1, “USE OF NITROXOLINE COMPOUND IN ENHANCING EFFECT OF ANTIBACTERIAL AGENT” (Jiangsu Yahong Meditech Co., Ltd., priority 2022, published 2026):
Where two headings read alike, the source gives them in different places. Blank lines part the entries; values can stand above or below the compound they belong to.

Legend:
Type in all cases: cell-based
[1] = tested on: carbapenem-resistant Acinetobacter baumannii; experiment: Chessboard microbroth dilution MIC/FIC, compound 1 in combination with meropenem; conditions: for MIC: Acinetobacter baumannii; for Compound 1 MIC in combination: with meropenem; for Meropenem MIC in combination: with compound 1
Excerpt: This experiment is designed to determine the minimum inhibitory concentration (MIC) of compound 1 in combination with meropenem against Acinetobacter baumannii (a strain resistant to carbapenem antibiotics) and to calculate the fractional inhibitory concentration (FIC) index.
Test bacteria: A total of 9 strains of Acinetobacter baumannii, all of which are resistant to carbapenem antibiotics (e.g., meropenem), are clinically isolated strains, and are provided by Shanghai Junji Medical Laboratory Co., Ltd.
(§1) According to the recommendation of the Clinical and Laboratory Standards Institute (CLSI), the microbroth dilution method designed by the chessboard method was used to determine the minimum inhibitory concentration (MIC) of compound 1 in combination with meropenem against the above strains, and the fractional inhibitory concentration (FIC) index was calculated.
(§2) Compound 1 was dissolved in dimethyl sulfoxide to obtain a stock solution I with a concentration of 1280 mg/L. The stock solution I was diluted to 512 mg/L with sterile water to obtain a gradient dilution first tube solution I. The gradient dilution first tube solution I was subjected to 1:1 gradient dilution with sterile water to obtain a working solution I with a gradient range of 512 to 0.25 mg/L.
(§3) Meropenem was dissolved in sterile water to obtain a stock solution II with a concentration of 5120 mg/L. The stock solution II was diluted to 1024 mg/L with sterile water to obtain a gradient dilution first tube solution II. The gradient dilution first tube solution II was subjected to 1:1 gradient dilution with sterile water to obtain a working solution II with a gradient range of 1024 to 0.5 mg/L.
50 μL of solution was taken from each tube of working solution I, and added to the drug sensitivity plate row by row starting from the second well of each row (in each row, the concentration of compound 1 increased from the second well to the last well). 50 μL of solution was taken from each tube of working solution II, and added to the drug sensitivity plate column by column starting from the second well of each column (in each column, the concentration of meropenem increased from the second well to the last well). As a result, a chessboard cross with different concentrations of the two drugs was formed (wherein, there was neither compound 1 nor meropenem in the intersection well of the first row and the first column; the wells of the first row except the intersection well only contained compound 1, and the wells of the first column except the intersection well only contained meropenem; except for the above wells, the remaining wells contained […] and meropenem).
According to the above process, the volume of the drug solution in each well containing only one drug of the drug sensitivity plate was 50 μL, thus 50 μL of sterile water was added to each well. 100 μL of sterile water was added to the intersection well of the first row and the first column. After that, 100 μL of bacterial solution (formulated according to step (3)) was added to all the wells of the drug sensitivity plate and mixed.
(§4) (2) The culture medium of the bacterial solution: Cation-Adjusted Mueller-Hinton Broth (CAMHB), a product of BBL, USA, batch number 9015952.
(§5) (3) Formulation method of bacterial solution: According to the direct colony suspension method, the test bacteria cultured overnight were prepared into a 0.5 McFarland turbidity tube using physiological saline. Then, the resulting solution was dilute 100 times with the above culture medium. 100 μL of the resulting bacterial solution was mixed well with the solution (100 μL) in each well of the drug sensitivity plate, and the final inoculation amount was 10^5 CFU/mL.
(§6) (4) Culture conditions: Culturing at 35±2° C. for 20 hours in air.
(1) The experimental results were determined according to the standard of CLSI 2019 M100 29th edition. […]

[2] = tested on: drug-resistant Escherichia coli II (drug-resistant Escherichia coli 1864); experiment: Chessboard microbroth dilution MIC/FIC, compound A in combination with meropenem; conditions: strain 1864
Excerpt: This experiment is designed to determine the minimum inhibitory concentration (MIC) of compound A in combination with meropenem against drug-resistant Escherichia coli I (a strain resistant to carbapenem antibiotics) and drug-resistant Escherichia coli II (a strain resistant to fluoroquinolone antibiotics, non-fluoroquinolone antibiotics, aminoglycoside antibiotics, glycopeptide antibiotics and carbapenem antibiotics), and to calculate the fractional inhibitory concentration (FIC) index.
(§7) 1 strain of drug-resistant Escherichia coli II, namely drug-resistant Escherichia coli 1864, is provided by the School of Pharmacy of Fudan University. This strain is resistant to fluoroquinolone antibiotics (such as levofloxacin), non-fluoroquinolone antibiotics (such as nalidixic acid, nemofloxacin), aminoglycoside antibiotics (such as gentamicin), glycopeptide antibiotics (such as vancomycin) and carbapenem antibiotics (such as meropenem).
as §1, with “A” for “1”
as §2, with “Compound A” for “Compound 1”
as §3
According to the method in Example 1, a drug sensitive plate was prepared with working solution I and working solution II, and the specific process will not be repeated here.
as §4, §5, §6
(1) The experimental results were determined according to the standard of CLSI 2019 M100 29th edition.
wherein: FIC≤0.5 indicates synergistic effect; 0.5<FIC≤1.0 indicates additive effect; 1<FIC≤2.0 indicates irrelevant effect; and FIC>2 indicates antagonistic effect.

[3] = tested on: drug-resistant Escherichia coli 1864; experiment: MIC of antibiotics against drug-resistant Escherichia coli II (resistance profile of the strain); conditions: drug-resistant Escherichia coli 1864; read-out: MIC
Excerpt: as §7

[4] = strain 18-J11-001, compound 1 + meropenem
[5] = strain 18-J11-002, compound 1 + meropenem
[6] = strain 18-J11-034, compound 1 + meropenem
[7] = strain 18-J11-097, compound 1 + meropenem
[8] = strain 18-J15-030, compound 1 + meropenem
[9] = strain 18-J21-095, compound 1 + meropenem
[10] = strain 18-J24-015, compound 1 + meropenem
[11] = strain 18-J40-021, compound 1 + meropenem
[12] = strain 18-J51-052, compound 1 + meropenem

- MIC ([1]; strain 18-J11-001, read-out: Compound 1 MIC alone): 8 µg/mL
- MIC ([1]; strain 18-J11-002, read-out: Compound 1 MIC alone): 4 µg/mL
- MIC ([1]; strain 18-J11-034, read-out: Compound 1 MIC alone): 4 µg/mL
- MIC ([1]; strain 18-J11-097, read-out: Compound 1 MIC alone): 8 µg/mL
- MIC ([1]; strain 18-J15-030, read-out: Compound 1 MIC alone): 16 µg/mL
- MIC ([1]; strain 18-J21-095, read-out: Compound 1 MIC alone): 8 µg/mL
- MIC ([1]; strain 18-J24-015, read-out: Compound 1 MIC alone): 8 µg/mL
- MIC ([1]; strain 18-J40-021, read-out: Compound 1 MIC alone): 8 µg/mL
- MIC ([1]; strain 18-J51-052, read-out: Compound 1 MIC alone): 4 µg/mL
- change of the MIC of meropenem by the combination ([1]; compound 1 + meropenem): significantly reduce
- Compound 1 MIC in combination ([1]; strain 18-J11-001): 4 µg/mL
- Compound 1 MIC in combination ([1]; strain 18-J11-002): 2 µg/mL
- Compound 1 MIC in combination ([1]; strain 18-J11-034): 2 µg/mL
- Compound 1 MIC in combination ([1]; strain 18-J11-097): 4 µg/mL
- Compound 1 MIC in combination ([1]; strain 18-J15-030): 8 µg/mL
- Compound 1 MIC in combination ([1]; strain 18-J21-095): 4 µg/mL
- Compound 1 MIC in combination ([1]; strain 18-J24-015): 2 µg/mL
- Compound 1 MIC in combination ([1]; strain 18-J40-021): 4 µg/mL
- Compound 1 MIC in combination ([1]; strain 18-J51-052): 2 µg/mL
SMILES: O=[N+]([O-])c1c(Br)c(Cl)c2cccnc2c1O [Compound 1, 6-bromo-5-chloro-7-nitroquinolin-8-ol]
- effect of the combination (summary of Table 1) ([1]; compound 1 + meropenem, strains resistant to carbapenem antibiotics): additive effect (0.5<FIC≤1.0 indicates additive effect)
- FIC index [1, 4]: 0.750
- Results [1, 4]: Additive
- FIC index [1, 5]: 0.750
- Results [1, 5]: Additive
- FIC index [1, 6]: 0.750
- Results [1, 6]: Additive
- FIC index [1, 7]: 0.750
- Results [1, 7]: Additive
- FIC index [1, 8]: 0.625
- Results [1, 8]: Additive
- FIC index [1, 9]: 0.750
- Results [1, 9]: Additive
- FIC index [1, 10]: 0.750
- Results [1, 10]: Additive
- FIC index [1, 11]: 0.750
- Results [1, 11]: Additive
- FIC index [1, 12]: 0.625
- Results [1, 12]: Additive

- MIC ([1]; strain 18-J11-001, read-out: Meropenem MIC alone): 32 µg/mL
- MIC ([1]; strain 18-J11-002, read-out: Meropenem MIC alone): 64 µg/mL
- MIC ([1]; strain 18-J11-034, read-out: Meropenem MIC alone): 64 µg/mL
- MIC ([1]; strain 18-J11-097, read-out: Meropenem MIC alone): 64 µg/mL
- MIC ([1]; strain 18-J15-030, read-out: Meropenem MIC alone): 64 µg/mL
- MIC ([1]; strain 18-J21-095, read-out: Meropenem MIC alone): 64 µg/mL
- MIC ([1]; strain 18-J24-015, read-out: Meropenem MIC alone): 64 µg/mL
- MIC ([1]; strain 18-J40-021, read-out: Meropenem MIC alone): 64 µg/mL
- MIC ([1]; strain 18-J51-052, read-out: Meropenem MIC alone): 32 µg/mL
- Meropenem MIC in combination ([1]; strain 18-J11-001): 8 µg/mL
- Meropenem MIC in combination ([1]; strain 18-J11-002): 16 µg/mL
- Meropenem MIC in combination ([1]; strain 18-J11-034): 16 µg/mL
- Meropenem MIC in combination ([1]; strain 18-J11-097): 16 µg/mL
- Meropenem MIC in combination ([1]; strain 18-J15-030): 8 µg/mL
- Meropenem MIC in combination ([1]; strain 18-J21-095): 16 µg/mL
- Meropenem MIC in combination ([1]; strain 18-J24-015): 32 µg/mL
- Meropenem MIC in combination ([1]; strain 18-J40-021): 16 µg/mL
- Meropenem MIC in combination ([1]; strain 18-J51-052): 4 µg/mL
- MIC ([2]; Escherichia coli, read-out: Meropenem MIC alone): 128 µg/mL
- Meropenem MIC in combination ([2]; with compound A): 2 µg/mL
- MIC [3]: > 64 µg/mL
SMILES: C[C@@H](O)[C@H]1C(=O)N2C(C(=O)O)=C(S[C@@H]3CN[C@H](C(=O)N(C)C)C3)[C@H](C)[C@H]12 [Meropenem, reference compound]
